According to paper PMC12680861, “Comparative analysis of LJ-4378 and tirzepatide in mouse models of obesity and weight regain” (Archives of Pharmacal Research, 2025):

Experiments:
[1] = Pharmacokinetic study in mice, single I.V. or P.O. administration; format: in vivo, male C57BL/6 J mice; conditions: for F (oral bioavailability): dose-normalized AUCinf
Protocol: The pharmacokinetics of LJ-4378 were evaluated in male C57BL/6 J mice following a single administration by either the oral (P.O.) or intravenous (I.V.) route. For P.O., LJ-4378 was administered at 10, 20, or 50 mg/kg in a vehicle composed of 0.5 mg/mL L-ascorbic acid, 5% DMSO, 20% PEG400, 20% Tween 80, and 55% of 0.1% copovidone. For I.V. administration, a 2 mg/kg dose was delivered via tail vein injection in a vehicle consisting of 5% DMSO, 25% PEG400, and 70% sterile water. Blood samples (200 μL) were collected at 5, 15, and 30 min and 1, 2, 4, 8, 12, and 24 h post-dose for the P.O. groups, and at 2, 5, 15, and 30 min and 1, 2, 4, 8, and 12 h post-dose for the I.V. group. Plasma was separated by centrifugation, and the concentrations of LJ-4378 were determined using a validated LC–MS/MS method. Pharmacokinetic parameters were calculated using non-compartmental analysis with Phoenix WinNonlin (v8.3), and included Cmax, Tmax, AUClast, AUCinf, t1/2, and clearance (Maclean et al. [2011]). Oral bioavailability was calculated using dose-normalized AUCinf values.

[2] = Preliminary study, I.V. bolus administration to mice; format: in vivo
[3] = Steady state tissue partition coefficient after I.V. infusion; format: in vivo, SD rats
Protocol: In this study, steady state tissue partition coefficients ( KP,T , i.e., the ratio of tissue to plasma concentrations in steady state) Eq. (1) were determined for LJ-4378 in SD rats. […] Therefore, to ensure a steady state condition, rats received I.V. infusion (i.e., infusion solution, 5% DMSO in normal saline; delivery rate, 10 µL/min; infusion rate, 0.31 µg/µL; total dose of LJ-4378, 0.837 mg per rat) for 270 min (i.e., the time exceeding five times the half-life). Blood samples (~ 150 µL) were collected from the animal at every 10 min from 240 to 270 min for the confirmation of the steady state of the compound. At completion of the last blood collection, rats were sacrificed by decapitation, and four representative tissues (i.e., gonadal adipose, brain, lung, and liver) were harvested. Tissues were then washed four times with ice-Dulbecco’s phosphate-buffered saline (DPBS), weighed, and homogenized in two volumes of DPBS using an Ultra Turrax homogenizer (IKA, Staufen, Germany). Aliquots (50 µL) of plasma and tissue homogenate were mixed with 200 µL ice-cold acetonitrile containing propranolol (100 ng/mL, internal standard). After vortex mixing for 10 min, the mixture was centrifuged at 16,100 × g for 5 min at 4 °C, and 10 µL of the supernatant was injected directly onto the HPLC–MS/MS system. The concentration of LJ-4378 in the biological sample was quantified on an Agilent 1200 HPLC coupled to an API 3200 mass spectrometer with a Phenomenex Luna C18(2) column (3 µm, 100 Å, 50 × 2 mm). Chromatography was performed under isocratic conditions with 80% acetonitrile containing 0.1% formic acid (mobile phase A) and 20% water containing 0.1% formic acid (mobile phase B) at a flow rate of 0.4 mL/min.
When calculating KP,T for LJ-4378 in […], Eq. (1) was used:1 KP,T=CT,ss/Cp,ss where CT,ss and Cp,ss represented the tissue and plasma concentrations at 270 min after the initiation of LJ-4378 infusion. In addition, under the free-drug hypothesis, the KP,T can be expressed as the ratio of the unbound fractions in plasma ( fup ) and tissue ( fu,T ) [Eq. (2)]. Given similar interspecies values of tissue unbound fraction (Poulin and Theil [2000]), the rat KP,T values were extrapolated to those in mice and humans using the following Eq. (3):2 KP,T=fup/fu,T 3 KP,T,extrapolated=KP,T,rat×fup/fup,rat

[4] = SD rats (observed), I.V. infusion 270 min

CCCCC#Cc1nc(N)c2ncn([C@@H]3SC[C@@H](O)[C@H]3O)c2n1 [LJ-4378]
AUC0-t ([1]; I.V. 2.00 mg/kg): 411.45 ng·h/mL | CL ([1]; I.V. 2.00 mg/kg): 80.7 (mL/min)/kg | Cmax ([1]; I.V. 2.00 mg/kg): 2395.23 ng/mL | Tmax ([1]; I.V. 2.00 mg/kg): 1.8 min | t1/2 ([1]; I.V. 2.00 mg/kg): 27.6 min | AUC0-t ([1]; P.O. 10.00 mg/kg): 1273.67 ng·h/mL | CL ([1]; P.O. 10.00 mg/kg): 128.5 (mL/min)/kg | Cmax ([1]; P.O. 10.00 mg/kg): 1220.57 ng/mL | Tmax ([1]; P.O. 10.00 mg/kg): 4.8 min | t1/2 ([1]; P.O. 10.00 mg/kg): 158 min | F (oral bioavailability) ([1]; P.O. 10.00 mg/kg): 62.93% | AUC0-t ([1]; P.O. 20.00 mg/kg): 3067.21 ng·h/mL | CL ([1]; P.O. 20.00 mg/kg): 103.2 (mL/min)/kg | Cmax ([1]; P.O. 20.00 mg/kg): 2401.74 ng/mL | Tmax ([1]; P.O. 20.00 mg/kg): 15 min | t1/2 ([1]; P.O. 20.00 mg/kg): 233 min | F (oral bioavailability) ([1]; P.O. 20.00 mg/kg): 78.42% | AUC0-t ([1]; P.O. 50.00 mg/kg): 8446.78 ng·h/mL | CL ([1]; P.O. 50.00 mg/kg): 93.0 (mL/min)/kg | Cmax ([1]; P.O. 50.00 mg/kg): 5307.60 ng/mL | Tmax ([1]; P.O. 50.00 mg/kg): 30 min | t1/2 ([1]; P.O. 50.00 mg/kg): 187 min | F (oral bioavailability) ([1]; P.O. 50.00 mg/kg): 86.08% | terminal phase half-life [2]: approximately 0.29 h | Steady state tissue partition coefficient (KP,T), Adipose [3, 4]: 0.0843 ± 0.00653 | Steady state tissue partition coefficient (KP,T), Liver [3, 4]: 0.440 ± 0.194 | Steady state tissue partition coefficient (KP,T), Lungs [3, 4]: 0.228 ± 0.0793 | partitioning in adipose tissue relative to brain ([3]; SD rats, steady state): over four-fold higher partitioning
